Source: patent US12070501B1, “Topical ophthalmological compositions” (ADS Therapeutics LLC, priority 2021, dated 2024)

Legend:
[1] = Miscibility of semi-fluorinated alkane F6H8 with MCT or light liquid paraffin oil; assay type: physicochemical
Method: F6H8, a semi-fluorinated alkane was tested for miscibility with MCT with the ratio of F6H8 to MCT from 1:99 to 99:1. […] F6H8, a semi-fluorinated alkane was tested for miscibility with light liquid paraffin oil with the ratio of F6H8 to light liquid paraffin oil from 1:99 to 99:1.

[2] = water-based formulation at neutral pH; cited from earlier work
[3] = system: New Zealand White rabbits

CCCCCCCCC(F)(F)C(F)(F)C(F)(F)C(F)(F)C(F)(F)C(F)(F)F [F6H8, perfluorohexyloctane]
Miscibility with MCT ([1]; ratio of F6H8 to MCT from 1:99 to 99:1): miscible with MCT at all ratios
Miscibility with light liquid paraffin oil ([1]; ratio of F6H8 to light liquid paraffin oil from 1:99 to 99:1): miscible with light liquid paraffin oil at all ratios

CN1[C@@H]2CC[C@H]1C[C@@H](OC(=O)C(CO)c1ccccc1)C2 (stereo partly drawn) [Atropine, atropine]
Shelf life of the product [2]: less than 1 year
Magnitude of pupil size changes versus atropine sulfate in aqueous solution ([3]; atropine in F6H8-based formulation, at comparable doses): comparable
Dose response in pupil size dilation ([3]; from 0.01% to 0.05% atropine, Day 7 and Day 22): dose response in pupil size dilation was observed
Pupil size dilation ([3]; topical ocular instillation twice daily, 40 μL to left eye, Day 7 and Day 22, CBT-009 at 0.01%, […] and 0.05% in […] phenylethyl alcohol, 10% MCT, 89.75% F6H8, comparator 0.03%): pupil size dilation was observed
